This is an account of results in paper PMC6957248 (Bioorganic & medicinal chemistry letters, 2016).

Structures are written as SMILES.

In assay [1] the target is T1, human TRPV1 heterologously expressed in Chinese hamster ovary (CHO) cells (Homo sapiens, UniProt Q8NER1). Kind of assay: binding competition assay with [3H]-resiniferatoxin. The note with it: for fold weaker binding affinity compared to 1: ratio of Ki versus compound 1.
In assay [2] the target is T1, human TRPV1 heterologously expressed in Chinese hamster ovary (CHO) cells. The class given is cell-based. The note with it: for fold weaker antagonistic potency compared to 1: ratio of Ki(ant) versus compound 1.

T1 sequence (Q8NER1 whole entry): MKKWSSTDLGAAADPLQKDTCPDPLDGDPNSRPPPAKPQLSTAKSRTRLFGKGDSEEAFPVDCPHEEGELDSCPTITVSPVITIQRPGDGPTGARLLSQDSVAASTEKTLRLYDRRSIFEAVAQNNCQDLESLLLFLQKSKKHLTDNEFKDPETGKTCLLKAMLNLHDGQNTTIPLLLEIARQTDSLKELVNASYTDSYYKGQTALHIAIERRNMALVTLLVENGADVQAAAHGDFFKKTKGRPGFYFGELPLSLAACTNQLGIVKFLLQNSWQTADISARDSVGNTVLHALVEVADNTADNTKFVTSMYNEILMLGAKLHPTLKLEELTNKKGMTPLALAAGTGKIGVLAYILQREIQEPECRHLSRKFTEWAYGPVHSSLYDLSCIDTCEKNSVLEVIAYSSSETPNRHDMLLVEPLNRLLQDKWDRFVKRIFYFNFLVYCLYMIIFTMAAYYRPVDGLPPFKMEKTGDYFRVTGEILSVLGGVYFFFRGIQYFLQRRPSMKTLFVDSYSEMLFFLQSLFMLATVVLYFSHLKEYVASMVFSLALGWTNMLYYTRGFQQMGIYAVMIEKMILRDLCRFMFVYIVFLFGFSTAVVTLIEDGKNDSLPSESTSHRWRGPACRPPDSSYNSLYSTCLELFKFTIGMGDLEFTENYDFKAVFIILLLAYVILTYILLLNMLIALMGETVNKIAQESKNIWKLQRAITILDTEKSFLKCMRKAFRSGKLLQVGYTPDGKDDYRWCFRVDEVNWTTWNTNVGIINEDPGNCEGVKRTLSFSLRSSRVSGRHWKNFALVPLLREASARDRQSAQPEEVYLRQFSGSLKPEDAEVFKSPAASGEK

Consider `CC1CCN(c2nc(C(F)(F)F)ccc2CCNC(=O)C(C)c2ccc(NS(C)(=O)=O)c(F)c2)CC1` (stereo not shown) [Compound 11], for which, in assay [1], the “fold weaker binding affinity compared to 1” value (“fold weaker binding affinity” for short) was 7 fold. In assay [2], the “fold weaker antagonistic potency compared to 1” value (“fold weaker antagonistic potency” for short) was 43 fold.

Turning to `CC1CCN(c2nc(C(F)(F)F)ccc2CNC(=O)C(C)c2ccc(CNS(C)(=O)=O)c(F)c2)CC1` (stereo not shown) [Compound 16], the “fold weaker binding affinity” value in assay [1] is reported as 29 fold. In addition, the “fold weaker antagonistic potency” value in assay [2] came out at 12 fold.

Take `CC1CCN(c2nc(C(F)(F)F)ccc2CNC(=O)Nc2ccc(NS(C)(=O)=O)c(F)c2)CC1` [Compound 21]: the “fold weaker binding affinity” value in assay [1] is 11 fold. For the same compound, in assay [2], the “fold weaker antagonistic potency” value was 67 fold.

In the case of `CC1CCN(c2nc(C(F)(F)F)ccc2CCNC(=O)Nc2ccc(NS(C)(=O)=O)c(F)c2)CC1` [Compound 22], the character of antagonism result in assay [2] (capsaicin stimulated 45Ca2+ uptake) is “partial antagonist”.

`CC1CCN(c2nc(C(F)(F)F)ccc2CNC(=O)Nc2ccc(CNS(C)(=O)=O)c(F)c2)CC1` [Compound 27]: the “fold increase in binding affinity compared to 21” value in assay [1] (ratio of Ki versus compound 21) was “approximately 12 fold”. The “fold increase in antagonistic potency compared to 21” value in assay [2] (ratio of Ki(ant) versus compound 21) is listed as “approximately 12 fold”.

In the case of `Cc1cccc(N(C(=O)NCc2ccc(C(F)(F)F)nc2N2CCC(C)CC2)c2ccc(NS(C)(=O)=O)c(F)c2)c1` [Compound 42], the “extent of antagonism, 15 min pre-incubation” value in assay [2] (cells incubated with compound 15 min before challenge with capsaicin) is reported as “full antagonism”.
